Data from ChEMBL document CHEMBL4706669, “Majonoside-R2 extracted from Vietnamese ginseng protects H9C2 cells against hypoxia/reoxygenation injury via modulating mitochondrial function and biogenesis” (2021).
Active and inactive are the calls of the source. The calls are words filed in the database; no cut-off is given here.

Assays:
[1] = test system: H9c2; test: Protection against HR-induced mitochondrial dysfunction in rat H9c2 cells assessed as mitochondrial membrane potential by measuring TMRE intensity by fluorescence microplate reader (reference value: 98.59 +/- 0.96 %); format: functional, cell-based; settings: dose 9.0 µM
[2] = test system: H9c2; test: Protection against HR-induced mitochondrial dysfunction in rat H9c2 cells assessed as increase in cardiolipin content by fluorescence microplate reader; format: functional, cell-based
[3] = test system: H9c2; test: Cardioprotective activity against HR-induced injury in rat H9c2 cells assessed as increase in cell viability at 10 uM by CCK-8 assay relative to control; format: functional
[4] = test system: H9c2; test: Protection against HR-induced mitochondrial dysfunction in rat H9c2 cells assessed as decrease in ROS production by fluorescence microplate reader; format: functional, cell-based
[5] = test system: H9c2; test: Induction of mitochondrial biogenesis in rat H9c2 cells with HR-induced injury assessed as upregulation of TFAM expression; format: functional, cell-based
[6] = test system: H9c2; test: Induction of mitochondrial biogenesis in rat H9c2 cells with HR-induced injury assessed as effect on PGC1alpha mRNA expression; format: functional, cell-based
[7] = test system: H9c2; test: Induction of mitochondrial biogenesis in rat H9c2 cells with HR-induced injury assessed as increase in NRF-1 mRNA expression; format: functional, cell-based
[8] = test system: H9c2; test: Induction of mitochondrial biogenesis in rat H9c2 cells with HR-induced injury assessed as […] in NRF-2 mRNA expression; format: functional, cell-based
[9] = Induction of mitochondrial biogenesis in rat H9c2 cells with HR-induced injury assessed as upregulation of PPAR expression by immunoblotting (reference value: 0.065 +/- 0.019); format: functional
[10] = test system: H9c2; test: Cardioprotective activity against HR-induced injury in rat H9c2 cells assessed as increase in cell viability at 0.1 to 90 uM by CCK-8 assay; format: functional, cell-based; settings: dose 0.1-90 µM
[11] = Induction of mitochondrial biogenesis in rat H9c2 cells with HR-induced injury assessed as upregulation of PGC1beta mRNA expression relative to GADPH (reference value: 0.981 +/- 0.007); format: functional
[12] = test system: H9c2; test: Increase in mitochondrial mass in rat H9c2 cells with HR-induced injury assessed as increase in NAO intensity by fluorescence microscopic analysis; format: functional, cell-based
[13] = test system: H9c2; test: Cardioprotective activity against HR-induced injury in rat H9c2 cells assessed as increase in cell viability at 9 uM by CCK-8 assay relative to control; format: functional
[14] = Induction of mitochondrial biogenesis in rat H9c2 cells with HR-induced injury assessed as upregulation of ATP5I expression (reference value: 0.998 +/- 0.001); format: functional
[15] = test system: H9c2; test: Induction of mitochondrial biogenesis in rat H9c2 cells with HR-induced injury assessed as increase in NAO intensity by fluorescence microscopic analysis; format: functional, cell-based

SMILES | Activity [1] | Activity [2] | Activity [3] | Activity [4] | Activity [5] | Activity [6] | Activity [7] | Activity [8] | fold change (FC) [9] | Activity [10] | fold change (FC) [11] | Activity [12] | Activity [13] | fold change (FC) [14] | Activity [15]
CS(=O)(=O)O.CS(=O)(=O)O.O=S1(=O)CCN(Cc2cc(NCC3CCOCC3)c3[nH]c(-c4ccccc4)cc3c2)CC1 | Active | Active | 84.37% | Active |  |  |  |  |  |  |  |  |  |  | 
CC(C)(O)[C@@H]1CC[C@@](C)([C@H]2CC[C@]3(C)[C@@H]2[C@H](O)C[C@@H]2[C@@]4(C)CC[C@H](O)C(C)(C)[C@@H]4[C@@H](O[C@@H]4O[C@H](CO)[C@@H](O)[C@H](O)[C@H]4O[C@@H]4OC[C@@H](O)[C@H](O)[C@H]4O)C[C@]23C)O1 [MAJONOSIDE R2] | Active | Active |  | Active | Active | inactive | Active | Active | 0.867 | Active | 1.113 | Active | 78.09% | 1.135 | Active
